Tests used:
male Swiss Albino mice [1] = experiment: Treadmill endurance test (first Example 4, L-Theanine); type: in vivo
Experimental: (§1) Distilled water was provided ad libitum. […] Ltd (Bangalore, India).
(§2) The following HED were used in this study: 50 mg paraxanthine, (ENFINITY™ Ingenious Ingredients, L.P Lewisville, TX, USA; mouse dose: 10.275 mg/kg bw/day); 25 mg L-Theanine (mouse dose: 5.137 mg/kg bw), and 50 mg paraxanthine plus 25 mg L-Theanine. 0.5% Carboxy Methyl Cellulose sodium was used as vehicle and the test item formulations were prepared daily.
During the treatment period, exercise training was completed using a motorized treadmill (Exer 3/6, Columbus Instruments international, OH, USA) at a moderate intensity of 20 cm/sec as maximal running speed, an incline of ten degrees and a shock intensity of 0.2 mA, for ten minutes. The speed of the treadmill was manually adjusted by increasing the belt speed by 5 cm/sec every two minutes throughout the total duration of ten minutes. All animals were adapted to this procedure daily 60 minutes after dosing for five days in a week during the treatment period. 1.3. Treadmill Endurance Test
Muscle endurance was accomplished on a motorized treadmill at a low to moderate intensity of 5-50 cm/sec as maximal running speed, an incline of ten degrees and a shock intensity of 0.2 mA, with the belt speed being increased by 5 cm/sec every two minutes until it reaches 50 cm/sec. Animals were subjected to the treadmill test until exhaustion.

[2] = test system: brain derived neuro factor, BDNF; experiment: BDNF level, neuroplasticity (Example 3); type: in vivo, rats; settings: for BDNF: oral 14 days
Experimental: as §1
(§3) 0.5% Carboxy Methyl Cellulose sodium was used as vehicle and the test item formulations were prepared daily. […] The last dose on day 14 was given 1 hour prior to testing.

glutathione (GSH) [3] = experiment: Glutathione level (Example 3); type: in vivo, rats; settings: for glutathione (GSH) level: oral 14 days
Experimental: as §1, §3

male Swiss Albino mice [4] = experiment: Treadmill endurance test (Example 2)
Experimental: Thirty-six 8-week-old male Swiss Albino mice were housed in an animal room at a constant temperature (22±3° C.) and humidity (30%-70%) under a 12:12 h light-dark cycle with standard laboratory diet (Purina 5L79, Rat and Mouse 18% protein; PMI Nutrition International, Brentwood, MO, USA). Distilled water was provided ad libitum. All animal experiments were reviewed and approved by the Institutional Animal Ethical Committee (IAEC) of Radiant Research Services Pvt. Ltd (Bangalore, India). All research was conducted in accordance with the guidelines of the committee for the purpose of control and supervision of experiments on animals.
The dose administered to the mice was calculated using US Food and Drug Administration for human equivalence doses (HED), assuming a human weight of 60 kg. […] 0.5% Carboxy Methyl Cellulose sodium was used as vehicle and the test item formulations were prepared daily. Dosing was conducted via oral gavage using disposable polypropylene syringes with sterilized stainless steel gavage tubes. The food intake and water consumption were monitored daily, and BW was recorded weekly. The last dose on day 28 was given 1 hour prior to testing.
On 28th day of each respective treatment, all animals were subjected to a muscle endurance test. Muscle endurance was accomplished on a motorized treadmill at a low to moderate intensity of 5-50 cm/sec as maximal running speed, an incline of ten degrees and a shock intensity of 0.2 mA, with the belt speed being increased by 5 cm/sec every two minutes until it reaches 50 cm/sec. Animals were subjected to the treadmill test until exhaustion. Distance traveled (cm) was measured as a marker of exercise performance, energy, and endurance.

[5] = test system: male Swiss Albino Wistar rats; experiment: Walter Morris Maze test (second Example 4, L-Theanine); type: in vivo; settings: for escape latency: oral 14 days
Experimental: as §1
as §2, with “(ENFINITY™,” for “(ENFINITY™”, “rat” for “mouse”, “5.141” for “10.275”, “(rat” for “(mouse”, “2.570” for “5.137”, “daily. […] The last dose on day 14 was given 1 hour prior to testing.” for “daily.”
The Walter Morris Maze test consisted of a circular pool in a room with geometric shapes on the wall serving as spatial cues. The pool, which is 70 cm in diameter and painted with black color, filled with 13 cm depth of 25±1° C. water. A platform (6 cm diameter) was placed into one quadrant of the pool and submerged 1 cm below the water surface. For the training, all rats were trained to locate the submerged platform in a constant location. The training day consisted of four trials. During training, a rat started at one of four starting points and allowed to swim until it located the platform or until 60 seconds had elapsed. The rat was allowed to remain on the platform for 15 seconds before being dried off and later was transferred to a holding cage. […] The animals were continuously trained 4 times at 4 starting points continued daily for 4 days, the main trial was conducted on the 15th & 16th day and the latency of escaping onto the platform was recorded.

dopamine (dopa) [6] = experiment: Dopamine concentration (Example 3); type: in vivo, rats; settings: for dopamine (dopa) concentration: oral 14 days
Experimental: as §1, §3

dopamine (dopa) [7] = experiment: Dopamine concentration (second Example 4); type: in vivo, rats; settings: for dopamine (dopa) concentration: oral 14 days
Experimental: as §1
as §2, with “(ENFINITY™,” for “(ENFINITY™”, “rat” for “mouse”, “5.141” for “10.275”, “(rat” for “(mouse”, “2.570” for “5.137”, “daily. […] The last dose on day 14 was given 1 hour prior to testing.” for “daily.”

[8] = test system: brain derived neuro factor, BDNF; experiment: BDNF level, neuroplasticity (second Example 4); type: in vivo, rats; settings: for BDNF: oral 14 days
Experimental: as §1
as §2, with “(ENFINITY™,” for “(ENFINITY™”, “rat” for “mouse”, “5.141” for “10.275”, “(rat” for “(mouse”, “2.570” for “5.137”, “daily. […] The last dose on day 14 was given 1 hour prior to testing.” for “daily.”

glutathione (GSH) [9] = experiment: Glutathione level (second Example 4); type: in vivo, rats; settings: for glutathione (GSH) level: oral 14 days
Experimental: as §1
as §2, with “(ENFINITY™,” for “(ENFINITY™”, “rat” for “mouse”, “5.141” for “10.275”, “(rat” for “(mouse”, “2.570” for “5.137”, “daily. […] The last dose on day 14 was given 1 hour prior to testing.” for “daily.”

[10] = test system: male Swiss Albino Wistar rats; experiment: Walter Morris Maze test (Example 3); type: in vivo; settings: for escape latency: oral 14 days
Experimental: Distilled water was provided ad libitum. […] Ltd (Bangalore, India). […] The last dose on day 14 was given 1 hour prior to testing. The Walter Morris Maze test consisted of a circular pool in a room with geometric shapes on the wall serving as spatial cues. The pool, which is 70 cm in diameter and painted with black color, filled with 13 cm depth of 25±1° C. water. A platform (6 cm diameter) was placed into one quadrant of the pool and submerged 1 cm below the water surface. For the training, all rats were trained to locate the submerged platform in constant location. The training day consisted of four trials. […] The rat was allowed to remain on the platform for 15 seconds before being dried off and later was transferred to a holding cage.

acetylcholine (Ach) [11] = experiment: Acetylcholine concentration (second Example 4); type: in vivo, rats; settings: for acetylcholine (Ach) concentration: oral 14 days
Experimental: as §1
as §2, with “(ENFINITY™,” for “(ENFINITY™”, “rat” for “mouse”, “5.141” for “10.275”, “(rat” for “(mouse”, “2.570” for “5.137”, “daily. […] The last dose on day 14 was given 1 hour prior to testing.” for “daily.”

acetylcholine (Ach) [12] = experiment: Acetylcholine concentration (Example 3); type: in vivo, rats; settings: for acetylcholine (Ach) concentration: oral 14 days
Experimental: as §1, §3

Cn1c(=O)[nH]c2ncn(C)c2c1=O [paraxanthine, 1,7-Dimethyl-3H-purine-2,6-dione]
increase of distance travelled compared to L-Theanine (male Swiss Albino mice [1]; compared to L-Theanine alone): 4.9% | increase of distance travelled compared to control (male Swiss Albino mice [1]; compared to control (placebo)): 81% | exercise performance, energy, and endurance (in words) (male Swiss Albino mice [1]; oral 28 days): significant improvements of exercise performance, energy, and endurance | distance travelled during treadmill exercise (male Swiss Albino mice [1]; oral once daily 28 days, HED 50 mg paraxanthine, 25 mg L-Theanine): 309.50±6.77 m | BDNF ([2]; old rats): 842.68 ± 6.26 pg/mL | increase in BDNF compared to alpha-GPC ([2]; old rats): 1.5% | increase in BDNF compared to placebo ([2]; old rats): 18.1% | increase in BDNF compared to theobromine ([2]; old rats): 3.1% | increase in BDNF compared to theophylline ([2]; old rats): 3.8% | BDNF ([2]; young rats): 917.05 ± 5.21 pg/mL | increase in BDNF compared to alpha-GPC ([2]; young rats): 4.0% | increase in BDNF compared to placebo ([2]; young rats): 22.7% | increase in BDNF compared to theobromine ([2]; young rats): 5.4% | increase in BDNF compared to theophylline ([2]; young rats): 4.9% | glutathione (GSH) level (glutathione (GSH) [3]; old rats): 25.57 ± 0.80 µg/mL | increase in GSH compared to alpha-GPC (glutathione (GSH) [3]; old rats): 3.4% | increase in GSH compared to placebo (glutathione (GSH) [3]; old rats): 62.1% | increase in GSH compared to theobromine (glutathione (GSH) [3]; old rats): 4.2% | increase in GSH compared to theophylline (glutathione (GSH) [3]; old rats): 5.5% | glutathione (GSH) level (glutathione (GSH) [3]; young rats): 32.57 ± 0.84 µg/mL | increase in GSH compared to alpha-GPC (glutathione (GSH) [3]; young rats): 2.6% | increase in GSH compared to placebo (glutathione (GSH) [3]; young rats): 64.1% | increase in GSH compared to theobromine (glutathione (GSH) [3]; young rats): 3.9% | increase in GSH compared to theophylline (glutathione (GSH) [3]; young rats): 9.4% | increase of distance travelled compared to alpha-GPC (male Swiss Albino mice [4]; compared to alpha-GPC alone): 4.4% | increase of distance travelled compared to control (male Swiss Albino mice [4]; compared to control (placebo)): 81% | increase of distance travelled compared to theobromine (male Swiss Albino mice [4]; compared to theobromine): 6.3% | increase of distance travelled compared to theophylline (male Swiss Albino mice [4]; compared to theophylline): 9.9% | exercise performance, energy, and endurance (in words) (male Swiss Albino mice [4]; oral 28 days): significant improvements of exercise performance, energy, and endurance | escape latency ([5]; old rats (16-month-old)): 39.00 ± 1.90 s | decrease of escape latency compared to L-Theanine ([5]; old rats): 12.7% | decrease of escape latency compared to control ([5]; old rats): 33.7% | escape latency ([5]; young rats (8-week-old)): 32.50 ± 1.38 s | decrease of escape latency compared to L-Theanine ([5]; young rats): 15.2% | decrease of escape latency compared to control ([5]; young rats): 40% | dopamine (dopa) concentration (dopamine (dopa) [6]; old rats): 516.85 ± 4.43 ng/L | increase in dopa compared to alpha-GPC (dopamine (dopa) [6]; old rats): 2.1% | increase in dopa compared to placebo (dopamine (dopa) [6]; old rats): 32.7% | increase in dopa compared to theobromine (dopamine (dopa) [6]; old rats): 2.8% | increase in dopa compared to theophylline (dopamine (dopa) [6]; old rats): 4.2% | dopamine (dopa) concentration (dopamine (dopa) [6]; young rats): 580.22 ± 5.33 ng/L | increase in dopa compared to alpha-GPC (dopamine (dopa) [6]; young rats): 3.0% | increase in dopa compared to placebo (dopamine (dopa) [6]; young rats): 23.7% | increase in dopa compared to theobromine (dopamine (dopa) [6]; young rats): 5.0% | increase in dopa compared to theophylline (dopamine (dopa) [6]; young rats): 6.7% | dopamine (dopa) concentration (dopamine (dopa) [7]; old rats): 516.85 ± 4.43 ng/L | increase in dopa compared to L-Theanine (dopamine (dopa) [7]; old rats): 9.3% | increase in dopa compared to placebo (dopamine (dopa) [7]; old rats): 32.7% | dopamine (dopa) concentration (dopamine (dopa) [7]; young rats): 580.22 ± 5.33 ng/L | increase in dopa compared to L-Theanine (dopamine (dopa) [7]; young rats): 9.8% | increase in dopa compared to placebo (dopamine (dopa) [7]; young rats): 23.7% | BDNF ([8]; old rats): 842.7 ± 6.26 pg/mL | increase in BDNF compared to L-Theanine ([8]; old rats): 6.8% | increase in BDNF compared to placebo ([8]; old rats): 18.1% | BDNF ([8]; young rats): 917 ± 5.21 pg/mL | increase in BDNF compared to L-Theanine ([8]; young rats): 5.9% | increase in BDNF compared to placebo ([8]; young rats): 22.7% | glutathione (GSH) level (glutathione (GSH) [9]; old rats): 25.57 ± 0.80 µg/mL | increase in GSH compared to L-Theanine (glutathione (GSH) [9]; old rats): 7.1% | increase in GSH compared to placebo (glutathione (GSH) [9]; old rats): 62.1% | glutathione (GSH) level (glutathione (GSH) [9]; young rats): 32.57 ± 0.84 µg/mL | increase in GSH compared to L-Theanine (glutathione (GSH) [9]; young rats): 2.6% | increase in GSH compared to placebo (glutathione (GSH) [9]; young rats): 64.1% | escape latency ([10]; old rats (16-month-old)): 39.00 ± 1.90 s | decrease of escape latency compared to alpha-GPC ([10]; old rats): 2.1% | decrease of escape latency compared to control ([10]; old rats): 33.7% | decrease of escape latency compared to theobromine ([10]; old rats): 7.9% | decrease of escape latency compared to theophylline ([10]; old rats): 11.0% | escape latency ([10]; young rats (8-week-old)): 32.50 ± 1.38 s | decrease of escape latency compared to alpha-GPC ([10]; young rats): 6.7% | decrease of escape latency compared to control ([10]; young rats): 40% | decrease of escape latency compared to theobromine ([10]; young rats): 13.7% | decrease of escape latency compared to theophylline ([10]; young rats): 14.5% | acetylcholine (Ach) concentration (acetylcholine (Ach) [11]; old rats): 59.78±2.61 U/mL | increase in Ach compared to L-Theanine (acetylcholine (Ach) [11]; old rats): 7.0% | increase in Ach compared to placebo (acetylcholine (Ach) [11]; old rats): 23.3% | acetylcholine (Ach) concentration (acetylcholine (Ach) [11]; young rats): 66.83±2.38 U/mL | increase in Ach compared to L-Theanine (acetylcholine (Ach) [11]; young rats): 6.4% | increase in Ach compared to placebo (acetylcholine (Ach) [11]; young rats): 23.9% | acetylcholine (Ach) concentration (acetylcholine (Ach) [12]; old rats): 59.78±2.61 U/mL | increase in Ach compared to alpha-GPC (acetylcholine (Ach) [12]; old rats): 5.1% | increase in Ach compared to placebo (acetylcholine (Ach) [12]; old rats): 23.2% | increase in Ach compared to theobromine (acetylcholine (Ach) [12]; old rats): 5.5% | increase in Ach compared to theophylline (acetylcholine (Ach) [12]; old rats): 8.0% | acetylcholine (Ach) concentration (acetylcholine (Ach) [12]; young rats): 66.83±2.38 U/mL | increase in Ach compared to alpha-GPC (acetylcholine (Ach) [12]; young rats): 1.4% | increase in Ach compared to placebo (acetylcholine (Ach) [12]; young rats): 23.9% | increase in Ach compared to theobromine (acetylcholine (Ach) [12]; young rats): 4.0% | increase in Ach compared to theophylline (acetylcholine (Ach) [12]; young rats): 4.6%

Reference: patent publication US12667574B2, “Paraxanthine-based bioactive composition and method of use thereof” (PX ING, LLC, priority 2021, dated 2026)
